According to patent US20240239790A1, “7-Morpholino-1,6-Naphthyridin-5-yl Derivatives and Pharmaceutical Compositions Thereof Useful as DNA-PK Inhibitor” (adMare Therapeutics Society, priority 2021, published 2024):
Where two headings read alike, the source gives them in different places.

Legend:
[1] = Pharmacokinetic study in male Sprague-Dawley rats (IV and PO), plasma; format: in vivo, rat; settings: for AUC(0-t) / Cmax at 5 min / half-life / AUC(0-inf): male, Sprague-Dawley; for AUC(0-t) / Cmax at 5 min / half-life / AUC(0-inf) / AUC—% Extrap—obs / Cl_obs / Vz_obs: rat plasma; for AUC(0-inf): read-out: AUCINF—obs; for F: rat
Description: Pharmacokinetic studies were conducted to estimate plasma concentrations obtained after oral gavage (PO) and intravenous (IV) single administration of compounds administered to male Sprague-Dawley rats. Six (6) rats were administered for each compound, route and dose, and plasma was collected at 12 timepoints over a 24 hr period for IV, and 12 timepoints over a 48 hr period for PO. Note that plasma was collected from only 3 animals per timepoint (n=3 for timepoints up to 10 hours, and n=3 for timepoints from 16 h to end of study). Dosing volumes were 5 mL/kg for IV and 10 mL/kg for PO gavage. IV compounds for administration were in solutions, whereas PO compounds were in solution or suspension.
(§1) The in-vivo study plasma samples were analyzed using Ultra Performance Liquid Chromatography (UPLC) with tandem mass spectrometry (MS/MS) detection in multiple reaction monitoring (MRM) mode. A generic bioanalytical method involving plasma sample extraction and cleanup by protein precipitation with acetonitrile was used followed by UPLC-MS/MS analysis.
(§2) A brief example of a generic bioanalytical UPLC-MS/MS method used for analysis of compounds in the in-vivo study plasma samples is as follows. Plasma samples were spiked with internal standard prior to extraction and cleanup by protein precipitation with ice cold acetonitrile containing 0.1% (v/v) ammonium hydroxide at a ratio of 3:1 (solvent:plasma) and centrifuged at 18213 rcf for 15 minutes at 4° C. to pellet precipitates. Aliquots of supernatants were transferred to a 96-well plate and evaporated to dryness at 40° C. under a stream of nitrogen gas. Samples were reconstituted in 50:50 acetonitrile/10 mM ammonium acetate buffer pH 8, mixed thoroughly and analyzed using Ultra Performance Liquid Chromatography (UPLC) with tandem mass spectrometry (MS/MS) detection in multiple reaction monitoring (MRM) mode. Matrix-matched calibration standards and quality control (QC) samples were prepared in naïve C57Bl/6 mouse plasma. The UPLC column used was Waters Acquity UPLC BEH C18 1.7 um, 2.1 mm×50 mm (with guard column). The UPLC mobile phase consisted of: Mobile phase A: 10 mM ammonium acetate in Water pH 8, and Mobile phase B: Acetonitrile. Separation was accomplished with a linear gradient of 5% mobile phase B to 95% mobile phase B in 2 min, and a flow rate of 0.35 mL/min. The MS/MS data acquisition was accomplished using 3 MRM Transitions in ESI+ mode. Parent ion mass 508.37 m/z-to-Daughter ions (m/z) 117.05, 232.13 and 270.22. The quantitation of concentrations in test samples was achieved by matrix-matched calibration with normalization using an internal standard. Data acquisition and analysis were performed using Waters MassLynx software with TargetLynx application manager.
(§3) Estimation of PK parameters was performed using independent noncompartmental model method by PHOENIX WinNonlin software.

FaDu tumour xenograft = assay: Tumour Growth Delay, FaDu tumour xenograft-bearing animals, compound ± radiation (TGD-ER); format: in vivo; settings: PO
Description: FaDu tumour xenograft-bearing animals were monitored for tumour growth and once average tumour size reached approximately 100-250 mm3, animals were assigned to treatment cohorts using stratified randomization. […]
For BID dosing regimens, at 8 h following the first injection, animals were again administered with test compound at the same dose as their previous administration. Animals were weighed and had tumours measured using calipers three times weekly until the endpoint of maximum tumour volume, 1000 mm3, was reached and animals were euthanized. Tumour volumes were calculated according to the equation L×W^2/2 with the length (mm) being the longer axis of the tumour; in the case that no tumour was palpable, tumour volumes were recorded as 0 mm^3.
Data were calculated as tumour growth normalized to day 0 measurements, with time to tumour doubling determined. Average time to tumour doubling for each group was used to determine a Tumour Growth Delay Enhancement Ratio (TGD-ER): the time to doubling for treatment groups were divided by the time to doubling for irradiation-alone groups to determine group-specific TGD-ER values, and these were assigned scores based on defined response ranges: values>2.5=A, 1-2.5=B, <1=C.

[2] = Pharmacokinetic study in male Beagle dogs (IV and PO), plasma; format: in vivo, dog; settings: for AUC—% Extrap—obs / Cl_obs / Vz_obs / AUC(0-t) / half-life / AUC(0-inf) / Cmax: dog plasma; for AUC(0-t) / half-life / AUC(0-inf) / Cmax: male, Beagle; for AUC(0-inf): read-out: AUCINF—obs; for Cmax: read-out: Cmax (5 min)
Description: Pharmacokinetic studies were conducted to estimate plasma concentrations obtained after oral gavage (PO) and intravenous (IV) single administration of compounds administered to separate groups of male Beagle dogs. Three (3) dogs were administered a compound via the intravenous (IV) route at 3 mg/kg and 2.5 mL/kg, and plasma was collected at 12 timepoints over a 24-hour period. Following a 7 days washout period, the same dogs were administered the same compound via PO at 10 mg/kg and 5 mL/kg, and plasma was collected at 12 timepoints over a 48-hour period.
as §1, §2, §3

- AUC(0-t) ([1]; IV, 3 mg/kg): 488 ng·h/mL
- Cmax at 5 min ([1]; IV, 3 mg/kg): 183 ng/mL
- half-life ([1]; IV, 3 mg/kg): 4.82 h
- AUC(0-inf) ([1]; IV, 3 mg/kg): 501 ng·h/mL
- AUC(0-t) ([1]; PO, 3 mg/kg): 305 ng·h/mL
- Cmax at 5 min ([1]; PO, 3 mg/kg): 27.2 ng/mL
- half-life ([1]; PO, 3 mg/kg): 2.81 h
- AUC(0-inf) ([1]; PO, 3 mg/kg): 308 ng·h/mL
- AUC(0-t) ([1]; PO, 10 mg/kg): 1550 ng·h/mL
- Cmax at 5 min ([1]; PO, 10 mg/kg): 140 ng/mL
- half-life ([1]; PO, 10 mg/kg): 3.23 h
- AUC(0-inf) ([1]; PO, 10 mg/kg): 1570 ng·h/mL
- AUC(0-t) ([1]; PO, 30 mg/kg): 5870 ng·h/mL
- Cmax at 5 min ([1]; PO, 30 mg/kg): 482 ng/mL
- half-life ([1]; PO, 30 mg/kg): 6.47 h
- AUC(0-inf) ([1]; PO, 30 mg/kg): 5890 ng·h/mL
- AUC—% Extrap—obs ([1]; IV, 3 mg/kg): 2.61%
- Cl_obs ([1]; IV, 3 mg/kg): 99.8872 mL/min/kg
- Vz_obs ([1]; IV, 3 mg/kg): 41.64841 L/kg
- AUC—% Extrap—obs ([1]; PO, 3 mg/kg): 1.07%
- Cl_obs ([1]; PO, 3 mg/kg): 162.417 mL/min/kg
- Vz_obs ([1]; PO, 3 mg/kg): 39.5678 L/kg
- AUC—% Extrap—obs ([1]; PO, 10 mg/kg): 1.16%
- Cl_obs ([1]; PO, 10 mg/kg): 106.252 mL/min/kg
- Vz_obs ([1]; PO, 10 mg/kg): 29.72118 L/kg
- AUC—% Extrap—obs ([1]; PO, 30 mg/kg): 0.37%
- Cl_obs ([1]; PO, 30 mg/kg): 84.9088 mL/min/kg
- Vz_obs ([1]; PO, 30 mg/kg): 47.52784 L/kg
- F ([1]; PO, 3 mg/kg): 62%
- F ([1]; PO, 10 mg/kg): 95%
- F ([1]; PO, 30 mg/kg): 120%
- AUC—% Extrap—obs ([2]; IV, 3 mg/kg): 23.94%
- Cl_obs ([2]; IV, 3 mg/kg): 32.4562 mL/min/kg
- Vz_obs ([2]; IV, 3 mg/kg): 37.41197 L/kg
- AUC—% Extrap—obs ([2]; PO, 10 mg/kg): 9.05%
- Cl_obs ([2]; PO, 10 mg/kg): 27.6643 mL/min/kg
- Vz_obs ([2]; PO, 10 mg/kg): 32.69379 L/kg
- F ([2]; dog, PO, 10 mg/kg): 143%
- AUC(0-t) ([2]; IV, 3 mg/kg): 1180 ng·h/mL
- half-life ([2]; IV, 3 mg/kg): 13.3 h
- AUC(0-inf) ([2]; IV, 3 mg/kg): 1560 ng·h/mL
- Cmax ([2]; IV, 3 mg/kg): 397 ng/mL
- AUC(0-t) ([2]; PO, 10 mg/kg): 5640 ng·h/mL
- half-life ([2]; PO, 10 mg/kg): 13.8 h
- AUC(0-inf) ([2]; PO, 10 mg/kg): 6220 ng·h/mL
- Cmax ([2]; PO, 10 mg/kg): 291 ng/mL
SMILES: CN1CCN(CCOc2cnc(N[C@H]3CC[C@@H](Oc4nc(N5CCOCC5)cc5ncccc45)CC3)nc2)CC1 [Compound 69, 5-(2-(4-Methylpiperazin-1-yl)ethoxy)-N-((1s,4s)-4-((7-morpholino-1,6-naphthyridin-5-yl)oxy)cyclohexyl)pyrimidin-2-amine]
- TGD-ER Range Score (FaDu tumour xenograft; 30 mpk + @4 h 10 Gy): C (<1=C)
- TGD-ER Range Score (FaDu tumour xenograft; 30 mpk BID + 10 Gy): B (1-2.5=B)
- TGD-ER Range Score (FaDu tumour xenograft; 100 mpk + @4 h 10 Gy): B (1-2.5=B)
- TGD-ER Range Score (FaDu tumour xenograft; (30 mpk + 2 Gy) Q5D): A (values>2.5=A)
- TGD-ER Range Score (FaDu tumour xenograft; (30 mpk) Q5D): C (<1=C)
